This is an account of results in patent publication US7488718B2, “Synthetic HLA binding peptide analogues and uses thereof” (Sloan Kettering Institue for Cancer Research, priority 2003, dated 2009).

Residues, ends and D or L forms follow the SMILES beside them.

Series [1] deals with HLA matched chronic myelogenous leukemia cell lines or CML blasts. The conditions noted are these: T cells generated with analogue peptide. How it is done:
Supernatant fluids were harvested and radioactivity was measured in a gamma counter. Percent specific lysis was determined from the following formula: 100×[(experimental release minus spontaneous release)/(maximum release minus spontaneous release)].

In series [2] the test system is CD3+ T cells. The experiment in a line: Gamma interferon ELISPOT, CD3+ T cells after in vitro peptide stimulation. The format is cell-based, human. The following applies: healthy HLA A0201 donors.
Series [3] concerns the target HLA A0201 (Homo sapiens, UniProt P04439, D140Y/D185E/D98H/E176V/E277Q/G131W/G231S/I119V/I121R/I166T/I218V/L300P/L318F/N151K/N90K/P208A/P217A/Q86G/Q94H/R138H/R169H/T345S). The series is described as follows: BIMAS predicted binding score for HLA A0201. The following applies: p210F versus native CMLA2. How it is done:
The synthetic peptide analogue segments are designed by making one or two amino acid substitutions in anchor or auxiliary residues. Although the native peptides particularly described herein are nonamers encompassing the anchor or auxiliary residues, analogues may be designed having about 70% to about 130% of the amino acids in the native peptide. In the instant invention the synthetic peptide analogues may have about 8-12 amino acids. Such substitutions are determined by a bioinformatic model system (BIMAS) which uses a matrix approach to predict binding and ranks the peptides based on predicted binding to the HLA molecule. The amino acid sequences and predicted score for binding to HLA A0201 and HLA A0301 are generated by online software BIMAS available at http://bimas.dcrt.nih.gov/cgi-bin/molbio/ken parker comboform and […] available at http://syfpeithi.bmi-heidelberg.com/.
Based on this information and by using the software of the Bioinformatics & Molecular Analysis Section (National Institutes of Health, Washington, D.C.) available at http://bimas.dcrt.nih.gov/cgi-bin/molbio/ken parker comboform. This software ranks 9-mer or 10-mer peptides on a predicted half-time dissociation coefficient from HLA class I molecules (Pinilla, et al. Curr Opin Immunol, 11(2): p. 193-202 (1999)). […]

The target in series [4] is T1, HLA-A0201 molecules on T2 cells (Homo sapiens, UniProt P04439, D140Y/D185E/D98H/E176V/E277Q/G131W/G231S/I119V/I121R/I166T/I218V/L300P/L318F/N151K/N90K/P208A/P217A/Q86G/Q94H/R138H/R169H/T345S).
T1 construct: increase in the level of surface HLA-A0201 recognizable by specific mAb such as BB7.2; endogenous in cells; host or cells: T2 cells (human, TAP-deficient, HLA-A0201+)
The experiment in a line: T2 assay for peptide binding to HLA A0201. The conditions noted are these: for binding to HLA A0201 molecules in T2 assay: bcr-abl b3a2 and b2a2 peptides. As for the experimental part: T2 cells (TAP−, HLA-A0201 +) were incubated overnight at 27° C. at 1×10E6 cells/ml in FCS-free RPMI medium supplemented with 5 μg/ml human β2 m (Sigma, St Louis, Mo.) in the absence, i.e., negative control, or presence of either a positive reference tyrosinase peptide or test peptides at various final concentrations of 50, 10, 1, and 0.1 μg/ml. Following a 4 h incubation with 5 μg/ml brefeldin A (Sigma), T2 cells were labeled for 30 min at 4° C. with a saturating concentration of anti-HLA-A2.1 (BB7.2) mAb, then washed twice. The cells then were incubated for 30 min at 4° C. with a saturating concentration of FITC-conjugated goat IgG F(ab′)2 anti-mouse Ig (Caltag, South San Francisco, Calif.), washed twice, fixed in PBS/1% paraformaldehyde and analyzed using a FACS Calibur cytofluorometer (Becton Dickinson, Immunocytometry systems, San Jose, Calif.).
The mean intensity of fluorescence (MIF) observed for each peptide concentration, after subtraction of the MIF observed without peptide, was used as an estimate of peptide binding. Stabilization assays were performed similarly. Following initial evaluation of peptide binding at time 0, cells were washed in RPMI complete medium to remove free peptides and incubated in the continuous presence of 0.5 μg/ml brefeldin-A for 2, 4, 6, and 8 hours. The amount of stable peptide-HLA-A2.1 complexes was estimated as described above by indirect immunofluorescence analysis. The half time of complexes is an estimate of the time required for a 50% reduction of the time 0 mean intensity of fluorescence value.
The immunogenicity of MHC class I-restricted peptides requires the capacity to bind and stabilize MHC class I molecules on the live cell surface. Moreover the computer prediction models above have only 60-80% predictive accuracy. Direct measurement of the strength of the interaction between the peptides and the HLA-A0201 molecule was made using a conventional binding and stabilization assay that uses the antigen-transporting deficient (TAP2-) HLA-A0201 human T2 cells. T2 cells lack TAP function and consequently are defective in properly loading class I molecules with antigenic peptides generated in the cytosol. The association of exogenously added peptides with thermolabile, empty HLA-A2 molecules stabilizes them and results in an increase in the level of surface HLA-A0201 recognizable by specific mAb such as BB7.2.

Series [5] relates to CD8+ T cells. The experiment in a line: Gamma interferon ELISPOT, CD8+ T cells after in vitro peptide stimulation. The series is classed as cell-based, human. The conditions noted are these: healthy HLA A0201 donors, peptide-pulsed T2 targets.

As to `CC[C@H](C)[C@H](NC(=O)[C@H](CC(C)C)NC(=O)[C@@H](N)Cc1ccc(O)cc1)C(=O)N[C@@H](CC(N)=O)C(=O)N[C@@H](CCCCN)C(=O)N[C@@H](CCC(=O)O)C(=O)N[C@@H](CCC(=O)O)C(=O)N[C@@H](C)C(=O)N[C@@H](CC(C)C)C(=O)O` [b3a2 A3, YLINKEEAL] (H-YLINKEEAL-OH; N-terminus and C-terminus assumed), the “cytotoxicity against CML cells expressing b3a2 or b2a2” value in series [1] is given as “Significant cytotoxicity was generated”. Still for that read-out and setting: then `CC(C)C[C@H](NC(=O)[C@H](CC(C)C)NC(=O)[C@@H](N)CCCCN)C(=O)N[C@@H](CCC(N)=O)C(=O)N[C@@H](CCCNC(=N)N)C(=O)N1CCC[C@H]1C(=O)N[C@H](C(=O)N[C@@H](C)C(=O)N[C@H](C(=O)O)C(C)C)C(C)C` [p210C] (H-KLLQRPVAV-OH; N-terminus and C-terminus assumed), with “Significant cytotoxicity was generated”. As for YLINKEEAV (analogue peptide b3a2 A4), the “immune response, gamma interferon secretion” value in series [2] is “generated an immune response in two healthy donors”. Regarding YLKALQRPV (analogue peptide p210F), the BIMAS prediction improvement in series [3] is 700 fold. Further, in series [4], the “binding to HLA A0201 molecules in T2 assay” value is given as “excellent avidity for HLA A0201 molecules”. In addition, the “immune response, IFN gamma secretion” value in series [5] is “generated a more consistent and higher immune-responses”. Take KLSSKALQV (analogue peptide p210B): the “immune response, IFN gamma secretion” value in series [5] is listed as “No immune response could be generated”. Same read-out and setting: the same measure for TLFKQSSKV (analogue peptide p210D): “produced an immune response in some of the donors tested”; for YLFKQSSKV (analogue peptide p210E): “produced an immune response in some of the donors tested”. For YLGATLKGV (analogue peptide WT-1 D1), the “binding to HLA A0201, thermostabilization on T2” value in series [4] (WT-1 peptides) is recorded as “significantly higher level of binding to HLA-A0201 over WT1-D”. Consider “SSKALQRPV (native peptide CMLA2) [reference compound]”, for which the “binding to HLA A0201 molecules in T2 assay” value in series [4] is reported as “weak binder”; in series [4] (listed as CML A2), “natural weak binder”. On to KQSSKALQV (analogue peptide p210A), for which the “immune response, IFN gamma secretion” value in series [5] is given as “No immune response could be generated”.

As for YLINKVEAL (analogue peptide b3a2 A5), in series [2], the “immune response, gamma interferon secretion” value is given as “generated an immune response in two healthy donors”.
